Two molecules from patent US20230101022A1, “GINSENOSIDE M1 AS A MODULATOR OF A[…] AND ITS USE FOR TREATING DISEASES OR […] SYMPTOMS CAUSED BY CORONAVIRUS” (priority 2020, published 2023) can be followed below.

Data set [1] concerns ACE2. In words: IHC of ACE2 in the renal tissue of SHR/WKY rats. The conditions noted are these: SHR, 20 mg/kg oral once daily for 42 days, IHC (FIG. 2). It is filed as in vivo, rat. How it is done: (§1) A total of 20 Wistar-Kyoto rats (WKY) and 20 SHR (male, 16˜17 weeks old) animals were grouped into four: WKY group (8 WKY, orally administered 0.5% CMC-Na); SHR group (8 SHR, orally administered 0.5% CMC-Na); WKY+Ginsenoside M1 group (8 WKY, orally administered 20 mg/kgGinsenoside M1); SHR +Ginsenoside M1 group (8 SHR, orally administered 20 mg/kg Ginsenoside M1). Ginsenoside M1 or placebo administration was carried out once daily for 42 days is was followed by animal sacrifice and blood and renal tissue sample collection. The renal tissue specimens underwent fixation with 4% formalin (histopathology) or were snap-frozen with liquid nitrogen and kept at −80° C. for reverse transcription quantitative real-time polymerase chain reaction (RT-qPCR) and enzyme-linked immunosorbent assay (ELISA).
(§2) ACE and ACE2 primary antibodies were produced by Bioss Antibodies. Peroxidase-linked goat anti-rabbit secondary antibodies and the DAB and two-step rabbit IHC kits were provided by ZSGB-BIO. IHC was carried out as proposed by ZSGB-BIO.

The subject of data set [2] is Ang II and Ang-(1-7) levels in the renal tissue. Put plainly: Ang II and Ang-(1-7) level assessment in the renal tissue of mice infused Ang II (ELISA). It is filed as in vivo. The conditions noted are these: C57BL/6 mice infused Ang II, 20 mg/kg oral daily for 14 days, ELISA (FIG. 3), vs Ang II group. As for the experimental part:
(§3) A total of twenty C57BL/6 mice (male, 10 weeks old) were maintained with rodent chow and water at will. Subcutaneous implantation of a 1002 osmotic minipump was performed at the dorsum of the neck for Ang II (1.5 mg/kg) or normal saline infusion animals were assigned to four groups: Saline group (5 mice, infused with normal saline and orally administered 0.5% CMC-Na); Ang II group (5 mice, infused with Ang II and orally administered 0.5% CMC-Na); Saline+Ginsenoside M1 group (5 mice, infused with normal saline and orally administered 20 mg·kg−1·d−1 Ginsenoside M1); Ang II +Ginsenoside M1 group (5 mice, infused with Ang II and orally administered 20 mg/kg Ginsenoside M1). Ginsenoside M1 or placebo administration was performed daily for 14 days, followed by animal sacrifice and blood and renal tissue sample collection. The renal tissue specimens underwent fixation with 4% formalin (histopathology) or were snap-frozen with liquid nitrogen and kept at −80° C. (RT-qPCR and ELISA).
(§4) The supernatants of renal specimens were prepared as follows. A total of 100 mg of the renal tissue was homogenized in 900 μL of ice-cold normal saline and submitted to centrifugation (1000 g, 4° C. for 15 min). The resulting supernatants were kept at −80° C. until analysis with Ang II and Ang-(1-7) ELISA kits, respectively, in accordance with the manufacturer's protocols.
A general note: In an ELISA, binding on a coated surface is turned into a signal by an enzyme label.

In data set [3] the test system is ACE. In words: IHC of ACE in the renal tissue of SHR/WKY rats. The format is in vivo, rat. The conditions noted are these: either WKY or SHR, 20 mg/kg oral once daily for 42 days, IHC (FIG. 2). As for the experimental part:
as §1, §2

Data set [4] concerns ACE2. Put plainly: IHC of ACE2 in the renal tissue of mice (infusion model). It is filed as in vivo. The conditions noted are these: C57BL/6 mice infused Ang II, 20 mg/kg oral daily for 14 days, IHC (FIG. 4), vs the other three groups. How it is done: as §3, §2
In data set [5] the test system is ACE. In words: IHC of ACE in the renal tissue of mice (infusion model). The conditions noted are these: C57BL/6 mice infused saline or Ang II, 20 mg/kg oral daily for 14 days, IHC (FIG. 4). It is filed as in vivo. As for the experimental part: as §3, §2
Data set [6] has as its system Ang II and Ang-(1-7) levels in the renal tissue. Put plainly: Ang II and Ang-(1-7) level assessment in the renal tissue of SHR/WKY rats (ELISA). It is filed as in vivo, rat. The conditions noted are these: 20 mg/kg oral once daily for 42 days, ELISA (FIG. 1). How it is done: as §1, §4
The test system of data set [7] is bleomycin-induced lung fibrosis. In words: Bleomycin-induced lung alveolitis and fibrosis in mice (Szapiel scoring). It is filed as in vivo. How it is done:
The animals were randomly divided into 5 groups as: (1) Saline group: 0.9% saline (200 μL) injection via the tail vein; (2) ACE2 group: a single intraperitoneal injection of ACE2 (0.2 mg/kg); (3) BLM group: a single injection of bleomycin at 150 mg/kg via the tail vein; and (4) BLM+ACE2 group: an injection of bleomycin at 150 mg/kg via the tail vein, followed by an intraperitoneal injection of ACE2 at 0.2 mg/kg. (5) BLM+ACE2+M1 group: an injection of bleomycin at 150 mg/kg via the tail vein, followed by an intraperitoneal injection of 0.2 mg/kg ACE2 and 60mg/kg M1. After administration, ten animals randomly selected from each group were euthanized on days 7, 14 and 28 by cervical dislocation.
Administration of bleomycin is a well-characterized model of pulmonary alveolitis or fibrosis in mice. The fibrotic changes in the lungs were determined using the Szapiel scoring method, higher score indicating greater disease condition. […] On day 28, in the BLM group, alveolitis spontaneously resolved; however, derangement of the alveolar architecture continued, and fibrosis persisted, characterized by diffuse, dense, thick collagen bundles and fibroblast foci.

[8] abbreviates: day 14, bleomycin 150 mg/kg tail vein, ACE2 0.2 mg/kg i.p.

`CC(C)=CCC[C@](C)(O[C@@H]1O[C@H](CO)[C@@H](O)[C@H](O)[C@H]1O)[C@H]1CC[C@]2(C)[C@@H]1[C@H](O)C[C@@H]1[C@@]3(C)CC[C@H](O)C(C)(C)[C@@H]3CC[C@]12C` [Ginsenoside M1, 20-O-β-D-glucopyranosyl-20(S)-protopanaxadiol]: the “ACE2 amounts in the renal tissue” value in the data set with ACE2 [1] was “further upregulate”. Also, the “Ang II levels in the renal tissue” value in data set [2] was “attenuate this increase significantly”; in data set [6] (SHR, vs SHR group), “significantly reduced”; in data set [6] (WKY) it was “limited effects”. For the same molecule, in data set [2], the “Ang-(1-7) levels in the renal tissue” value is on record as “significant increase compared with the Ang II group”. The “ACE expression in the renal tissue” value with ACE [3] is “no significant effect”; in the data set with ACE [5], “no marked differences”. Further, in the data set with ACE2 [4], the “ACE2 expression levels in the renal tissue” value was “markedly elevated”. Also, the “Ang-(1-7) amounts in the renal tissue” value in data set [6] (SHR, vs SHR group) is “significantly higher values compared with the SHR group”.

B1: ACE2: recombinant mouse ACE2 (angiotensin-converting enzyme 2) given by intraperitoneal injection (protein, UniProt Q8R0I0 18-805, looked up)
Angiotensin-converting enzyme …: QSLTEENAKTFLNNFNQEAEDLSYQSSLASWNYNTNITEENAQKMSEAAAKWSAFYEEQSKTAQSFSLQEIQTPIIKRQLQALQQSGSSALSADKNKQLNTILNTMSTIYSTGKVCNPKNPQECLLLEPGLDEIMATSTDYNSRLWAWEGWRAEVGKQLRPLYEEYVVLKNEMARANNYNDYGDYWRGDYEAEGADGYNYNRNQLIEDVERTFAEIKPLYEHLHAYVRRKLMDTYPSYISPTGCLPAHLLGDMWGRFWTNLYPLTVPFAQKPNIDVTDAMMNQGWDAERIFQEAEKFFVSVGLPHMTQGFWANSMLTEPADGRKVVCHPTAWDLGHGDFRIKMCTKVTMDNFLTAHHEMGHIQYDMAYARQPFLLRNGANEGFHEAVGEIMSLSAATPKHLKSIGLLPSDFQEDSETEINFLLKQALTIVGTLPFTYMLEKWRWMVFRGEIPKEQWMKKWWEMKREIVGVVEPLPHDETYCDPASLFHVSNDYSFIRYYTRTIYQFQFQEALCQAAKYNGSLHKCDISNSTEAGQKLLKMLSLGNSEPWTKALENVVGARNMDVKPLLNYFQPLFDWLKEQNRNSFVGWNTEWSPYADQSIKVRISLKSALGANAYEWTNNEMFLFRSSVAYAMRKYFSIIKNQTVPFLEEDVRVSDLKPRVSFYFFVTSPQNVSDVIPRSEVEDAIRMSRGRINDVFGLNDNSLEFLGIHPTLEPPYQPPVTIWLIIFGVVMALVVVGIIILIVTGIKGRKKKNETKREENPYDSMDIGKGESNAGFQNSDDAQTSF
Consider B1, for which the “Signs of alveolitis or fibrosis without bleomycin” value in data set [7] (ACE2 group: single i.p. injection 0.2 mg/kg, no bleomycin, days 7, 14 and 28) was “No signs of alveolitis or fibrosis”. The “Pathological changes in the lung (alveolitis)” value in data set [7] (day 7, bleomycin 150 mg/kg tail vein, ACE2 0.2 mg/kg i.p.) is reported as “did not significantly alter”. In data set [7] (setting [8]), the “Alveolitis (Szapiel scoring)” value was “significantly attenuated” and the “Fibrosis (Szapiel scoring)” value was “significantly attenuated”. The “Alveolitis (Szapiel scoring)” value in data set [7] (day 28, bleomycin 150 mg/kg tail vein, ACE2 0.2 mg/kg i.p., with or without M1 60 mg/kg) is recorded as “only mild to moderate alveolitis”.
